{"source": "the NIST ThermoML archive (doi:10.1016/j.tca.2006.02.028)", "assay": "excess molar enthalpy (molar enthalpy of mixing); xn = mol fraction of the nth substance listed", "conditions": "298.15 K, 101 kPa, Liquid, Titration calorimetry", "note": "± gives the expanded uncertainty stated by the source.", "data": [{"smiles": "CO", "note": "[methanol] + O", "values": [{"measurement": "excess molar enthalpy", "setting": "x1 = 0.05", "result": "-0.326 ± 0.004", "unit": "kJ/mol"}, {"measurement": "excess molar enthalpy", "setting": "x1 = 0.1", "result": "-0.55 ± 0.007", "unit": "kJ/mol"}, {"measurement": "excess molar enthalpy", "setting": "x1 = 0.15", "result": "-0.714 ± 0.008", "unit": "kJ/mol"}, {"measurement": "excess molar enthalpy", "setting": "x1 = 0.2", "result": "-0.806 ± 0.009", "unit": "kJ/mol"}, {"measurement": "excess molar enthalpy", "setting": "x1 = 0.3", "result": "-0.85 ± 0.01", "unit": "kJ/mol"}, {"measurement": "excess molar enthalpy", "setting": "x1 = 0.4", "result": "-0.841 ± 0.009", "unit": "kJ/mol"}, {"measurement": "excess molar enthalpy", "setting": "x1 = 0.5", "result": "-0.777 ± 0.009", "unit": "kJ/mol"}, {"measurement": "excess molar enthalpy", "setting": "x1 = 0.6", "result": "-0.68 ± 0.008", "unit": "kJ/mol"}, {"measurement": "excess molar enthalpy", "setting": "x1 = 0.7", "result": "-0.583 ± 0.007", "unit": "kJ/mol"}, {"measurement": "excess molar enthalpy", "setting": "x1 = 0.8", "result": "-0.412 ± 0.005", "unit": "kJ/mol"}, {"measurement": "excess molar enthalpy", "setting": "x1 = 0.9", "result": "-0.241 ± 0.003", "unit": "kJ/mol"}, {"measurement": "excess molar enthalpy", "setting": "x1 = 1", "result": "0 ± 0.001", "unit": "kJ/mol"}]}, {"smiles": "O", "note": "[water] + CO", "values": [{"measurement": "excess molar enthalpy", "setting": "x2 = 0", "result": "0 ± 0.001", "unit": "kJ/mol"}]}]}
